Results: PubChem BioAssay AID1919000 (Molecular Pharmacology Branch, DTP, NCI, 2023)
“And” between values parts separate entries of the source, which are not always exact repeats. Equal entries are not always repeated.

Tested on: 653999-131-R-J2-PDC complex spheroids, growth % test/control
Test: Anticancer human tumor 653999-131-R-J2-PDC patient-derived lung adenocarcinoma cell line growth inhibition [AhR]
Conditions: for viability, T/C: stronger effect = lower value
Outline: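 Complex tumor spheroids co-cultured with HUVEC and human MSC stroma; AhR antagonists tested in combination with standard-of-care and investigational agents. Top concentration at or near clinical Cmax (else 10 microM), half-log dilutions; growth expressed as percent test/control.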

[1] = curve of first compound, second compound 0.1 µM
[2] = curve of first compound, second compound 0.316 µM
[3] = curve of first compound, second compound 1 µM
[4] = curve of first compound, second compound 3.16 µM
[5] = curve of first compound, second compound 10 µM
[6] = second compound 0.1 µM, first compound 0.000949 µM
[7] = second compound 0.1 µM, first compound 0.003 µM
[8] = second compound 0.1 µM, first compound 0.00949 µM
[9] = second compound 0.1 µM, first compound 0.03 µM
[10] = second compound 0.1 µM, first compound 0.0949 µM
[11] = second compound 0.1 µM, first compound 0.3 µM
[12] = second compound 0.316 µM, first compound 0.000949 µM
[13] = second compound 0.316 µM, first compound 0.003 µM
[14] = second compound 0.316 µM, first compound 0.00949 µM
[15] = second compound 0.316 µM, first compound 0.03 µM
[16] = second compound 0.316 µM, first compound 0.0949 µM
[17] = second compound 0.316 µM, first compound 0.3 µM
[18] = second compound 1 µM, first compound 0.000949 µM
[19] = second compound 1 µM, first compound 0.003 µM
[20] = second compound 1 µM, first compound 0.00949 µM
[21] = second compound 1 µM, first compound 0.03 µM
[22] = second compound 1 µM, first compound 0.0949 µM
[23] = second compound 1 µM, first compound 0.3 µM
[24] = second compound 3.16 µM, first compound 0.000949 µM
[25] = second compound 3.16 µM, first compound 0.003 µM
[26] = second compound 3.16 µM, first compound 0.00949 µM
[27] = second compound 3.16 µM, first compound 0.03 µM
[28] = second compound 3.16 µM, first compound 0.0949 µM
[29] = second compound 3.16 µM, first compound 0.3 µM
[30] = second compound 10 µM, first compound 0.000949 µM
[31] = second compound 10 µM, first compound 0.003 µM
[32] = second compound 10 µM, first compound 0.00949 µM
[33] = second compound 10 µM, first compound 0.03 µM
[34] = second compound 10 µM, first compound 0.0949 µM
[35] = second compound 10 µM, first compound 0.3 µM
[36] = second compound 0.1 µM, first compound 0.0316 µM
[37] = second compound 0.1 µM, first compound 0.1 µM
[38] = second compound 0.316 µM, first compound 0.0316 µM
[39] = second compound 0.316 µM, first compound 0.1 µM
[40] = second compound 1 µM, first compound 0.0316 µM
[41] = second compound 1 µM, first compound 0.1 µM
[42] = second compound 3.16 µM, first compound 0.0316 µM
[43] = second compound 3.16 µM, first compound 0.1 µM
[44] = second compound 10 µM, first compound 0.0316 µM
[45] = second compound 10 µM, first compound 0.1 µM
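Note: spheroids exposed to agents for seven days.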
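Throughout, for viability, T/C: 100% = DMSO vehicle control viability.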

## CC[C@@]1(O)C(=O)OCc2c1cc1n(c2=O)Cc2cc3c(CN(C)C)c(O)ccc3nc2-1
Compound 0.000316 µM
  viability, T/C: 118% and 95.5% and 101%
Compound 0.001 µM
  viability, T/C: 100% and 95.1% and 108%
Compound 0.00316 µM
  viability, T/C: 91.8% and 99.8% and 102%
Compound 0.01 µM
  viability, T/C: 80.7% and 79.8% and 91.8%
Compound 0.0316 µM
  viability, T/C: 69.5% and 61.3% and 63.9%
Compound 0.1 µM
  viability, T/C: 44.3% and 36.5% and 48%
Curve of compound
  IC50: 84.8 nM and 51.8 nM and 86.6 nM

## NS(=O)(=O)OCC1CC(n2ccc3c(NC4CCc5ccccc54)ncnc32)CC1O (centres undefined)
Compound 0.0316 µM
  viability, T/C: 101% and 97.7% and 115%
Compound 0.1 µM
  viability, T/C: 98.7% and 110% and 114%
Compound 0.316 µM
  viability, T/C: 89.3% and 95.5% and 96%
Compound 1 µM
  viability, T/C: 89.8% and 104% and 105%
Compound 3.16 µM
  viability, T/C: 91.9% and 83.5% and 78.4%
Compound 10 µM
  viability, T/C: 53.4% and 61.8% and 55.4%
Curve of compound
  IC50: > 10000 nM

## CC(C)CC(NC(=O)C(Cc1ccccc1)NC(=O)c1cnccn1)B(O)O (centres undefined) + Cc1cncc(-c2nc(NCCc3c[nH]c4ccccc34)c3ncn(C(C)C)c3n2)c1
[1]
  IC50: 22.3 nM
[2]
  IC50: 20.4 nM
[3]
  IC50: 21.4 nM
[4]
  IC50: 20.4 nM
[5]
  IC50: 4.28 nM
[6]
  viability, T/C: 94.5%
[7]
  viability, T/C: 130%
[8]
  viability, T/C: 103%
[9]
  viability, T/C: 29.3%
[10]
  viability, T/C: 9.65%
[11]
  viability, T/C: 3.26%
[12]
  viability, T/C: 108%
[13]
  viability, T/C: 108%
[14]
  viability, T/C: 113%
[15]
  viability, T/C: 20%
[16]
  viability, T/C: 8.44%
[17]
  viability, T/C: 2.71%
[18]
  viability, T/C: 100%
[19]
  viability, T/C: 126%
[20]
  viability, T/C: 112%
[21]
  viability, T/C: 24%
[22]
  viability, T/C: 7.89%
[23]
  viability, T/C: 3.25%
[24]
  viability, T/C: 118%
[25]
  viability, T/C: 121%
[26]
  viability, T/C: 112%
[27]
  viability, T/C: 18.5%
[28]
  viability, T/C: 4.53%
[29]
  viability, T/C: 2.13%
[30]
  viability, T/C: 59.6%
[31]
  viability, T/C: 66.7%
[32]
  viability, T/C: 20.5%
[33]
  viability, T/C: 2.12%
[34]
  viability, T/C: 0.89%
[35]
  viability, T/C: 0.72%

## CC[C@@]1(O)C(=O)OCc2c1cc1n(c2=O)Cc2cc3c(CN(C)C)c(O)ccc3nc2-1 + Cc1cncc(-c2nc(NCCc3c[nH]c4ccccc34)c3ncn(C(C)C)c3n2)c1
[1]
  IC50: 34.2 nM
[2]
  IC50: 26.8 nM
[3]
  IC50: 30.1 nM
[4]
  IC50: 47.3 nM
[5]
  IC50: 4.63 nM
Second compound 0.1 µM, first compound 0.000316 µM
  viability, T/C: 100%
Second compound 0.1 µM, first compound 0.001 µM
  viability, T/C: 86.7%
Second compound 0.1 µM, first compound 0.00316 µM
  viability, T/C: 88.2%
Second compound 0.1 µM, first compound 0.01 µM
  viability, T/C: 70%
[36]
  viability, T/C: 49.5%
[37]
  viability, T/C: 40.4%
Second compound 0.316 µM, first compound 0.000316 µM
  viability, T/C: 95.4%
Second compound 0.316 µM, first compound 0.001 µM
  viability, T/C: 93.2%
Second compound 0.316 µM, first compound 0.00316 µM
  viability, T/C: 83%
Second compound 0.316 µM, first compound 0.01 µM
  viability, T/C: 72.8%
[38]
  viability, T/C: 44.6%
[39]
  viability, T/C: 33.7%
Second compound 1 µM, first compound 0.000316 µM
  viability, T/C: 106%
Second compound 1 µM, first compound 0.001 µM
  viability, T/C: 117%
Second compound 1 µM, first compound 0.00316 µM
  viability, T/C: 95%
Second compound 1 µM, first compound 0.01 µM
  viability, T/C: 72.3%
[40]
  viability, T/C: 51.4%
[41]
  viability, T/C: 36.3%
Second compound 3.16 µM, first compound 0.000316 µM
  viability, T/C: 112%
Second compound 3.16 µM, first compound 0.001 µM
  viability, T/C: 106%
Second compound 3.16 µM, first compound 0.00316 µM
  viability, T/C: 91.5%
Second compound 3.16 µM, first compound 0.01 µM
  viability, T/C: 77.4%
[42]
  viability, T/C: 57.5%
[43]
  viability, T/C: 36.2%
Second compound 10 µM, first compound 0.000316 µM
  viability, T/C: 55.2%
Second compound 10 µM, first compound 0.001 µM
  viability, T/C: 64.4%
Second compound 10 µM, first compound 0.00316 µM
  viability, T/C: 54.6%
Second compound 10 µM, first compound 0.01 µM
  viability, T/C: 39.3%
[44]
  viability, T/C: 34.1%
[45]
  viability, T/C: 28.5%

## COc1cccc2c1C(=O)c1c(O)c3c(c(O)c1C2=O)CC(O)(C(=O)CO)CC3OC1CC(N)C(O)C(C)O1 (centres undefined) + Cc1ccccc1N=Nc1ccc(NC(=O)c2ccnn2C)c(C)c1
[1]
  IC50: < 31.6 nM
[2]
  IC50: < 31.6 nM
[3]
  IC50: < 31.6 nM
[4]
  IC50: 95.9 nM
[5]
  IC50: 129 nM
[36]
  viability, T/C: 50.3%
[37]
  viability, T/C: 44.6%
Second compound 0.1 µM, first compound 0.316 µM
  viability, T/C: 25.8%
Second compound 0.1 µM, first compound 1 µM
  viability, T/C: 9.24%
Second compound 0.1 µM, first compound 3.16 µM
  viability, T/C: 5.33%
Second compound 0.1 µM, first compound 10 µM
  viability, T/C: 16.6%
[38]
  viability, T/C: 50.5%
[39]
  viability, T/C: 40.8%
Second compound 0.316 µM, first compound 0.316 µM
  viability, T/C: 29.3%
Second compound 0.316 µM, first compound 1 µM
  viability, T/C: 9.21%
Second compound 0.316 µM, first compound 3.16 µM
  viability, T/C: 4.48%
Second compound 0.316 µM, first compound 10 µM
  viability, T/C: 17.2%
[40]
  viability, T/C: 48.8%
[41]
  viability, T/C: 44%
Second compound 1 µM, first compound 0.316 µM
  viability, T/C: 28.6%
Second compound 1 µM, first compound 1 µM
  viability, T/C: 10.4%
Second compound 1 µM, first compound 3.16 µM
  viability, T/C: 8.05%
Second compound 1 µM, first compound 10 µM
  viability, T/C: 19.6%
[42]
  viability, T/C: 55.6%
[43]
  viability, T/C: 47%
Second compound 3.16 µM, first compound 0.316 µM
  viability, T/C: 32.6%
Second compound 3.16 µM, first compound 1 µM
  viability, T/C: 12.3%
Second compound 3.16 µM, first compound 3.16 µM
  viability, T/C: 11.6%
Second compound 3.16 µM, first compound 10 µM
  viability, T/C: 19.2%
[44]
  viability, T/C: 60.5%
[45]
  viability, T/C: 51%
Second compound 10 µM, first compound 0.316 µM
  viability, T/C: 37.2%
Second compound 10 µM, first compound 1 µM
  viability, T/C: 16.3%
Second compound 10 µM, first compound 3.16 µM
  viability, T/C: 8.54%
Second compound 10 µM, first compound 10 µM
  viability, T/C: 22.5%

## CCc1c2c(nc3ccc(O)cc13)-c1cc3c(c(=O)n1C2)COC(=O)[C@]3(O)CC + CC(CO)NC(=O)c1cc(-c2ccc(Cl)cc2)nn(-c2cnn(C)c2)c1=O
[1]
  IC50: 7.43 nM
[2]
  IC50: 5.82 nM
[3]
  IC50: 6.93 nM
[4]
  IC50: 5.13 nM
[5]
  IC50: 4.97 nM
[6]
  viability, T/C: 68%
[7]
  viability, T/C: 59%
[8]
  viability, T/C: 48.4%
[9]
  viability, T/C: 32%
[10]
  viability, T/C: 21.5%
[11]
  viability, T/C: 12.7%
[12]
  viability, T/C: 64.1%
[13]
  viability, T/C: 58.8%
[14]
  viability, T/C: 42.3%
[15]
  viability, T/C: 34%
[16]
  viability, T/C: 19.4%
[17]
  viability, T/C: 11.4%
[18]
  viability, T/C: 67%
[19]
  viability, T/C: 60%
[20]
  viability, T/C: 45.4%
[21]
  viability, T/C: 33.7%
[22]
  viability, T/C: 21.2%
[23]
  viability, T/C: 13.8%
[24]
  viability, T/C: 50.2%
[25]
  viability, T/C: 50.8%
[26]
  viability, T/C: 49.9%
[27]
  viability, T/C: 29.1%
[28]
  viability, T/C: 22.1%
[29]
  viability, T/C: 15.8%
[30]
  viability, T/C: 63.2%
[31]
  viability, T/C: 55.8%
[32]
  viability, T/C: 42.9%
[33]
  viability, T/C: 30%
[34]
  viability, T/C: 21.8%
[35]
  viability, T/C: 16.1%
